Experimental data reported in patent publication EP3381898A1, “SYMMETRICAL TRIS-ARYL-AMIDE DERIVATIVES AND THEIR USE AS ANTI-HEPARANASE” (priority 2017, dated 2018).
Counter-ions that a name gives are not always drawn.

molecular target: T1, heparanase (Homo sapiens, UniProt Q9Y251); experiment: AGA*IA assay: heparanase-catalyzed fondaparinux cleavage, colorimetric (WST-1); assay type: biochemical; settings: Table 1; range activity classes, AGA*IA test on Fondaparinux; read-out: AGAIA assay IC50
T1 sequence (Q9Y251 158-543 limits assumed): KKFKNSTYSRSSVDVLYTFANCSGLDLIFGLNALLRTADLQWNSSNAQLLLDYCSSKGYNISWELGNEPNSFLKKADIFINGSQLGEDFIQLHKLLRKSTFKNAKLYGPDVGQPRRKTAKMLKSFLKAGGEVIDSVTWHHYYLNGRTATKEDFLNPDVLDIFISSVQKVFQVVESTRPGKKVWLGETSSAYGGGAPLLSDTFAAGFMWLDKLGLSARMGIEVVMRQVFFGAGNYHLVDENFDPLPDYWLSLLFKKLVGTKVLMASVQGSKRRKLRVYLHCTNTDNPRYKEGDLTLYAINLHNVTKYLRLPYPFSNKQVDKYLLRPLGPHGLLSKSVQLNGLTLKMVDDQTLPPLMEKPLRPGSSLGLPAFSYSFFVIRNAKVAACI
T1 sequence (Q9Y251 36-109 limits assumed): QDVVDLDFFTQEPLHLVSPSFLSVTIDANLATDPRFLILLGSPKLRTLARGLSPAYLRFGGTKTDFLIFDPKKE
Method: All compounds were tested in a simple, accurate and robust microplate assay based on the cleavage of the synthetic heparin fragment, the pentasaccharide Fondaparinux (AGA*IA). This assay was originally developed by Hammond and coworkers (Hammond E, Li CP, Ferro V. Development of a colorimetric assay for heparanase activity suitable for kinetic analysis and inhibitor screening. Anal. Biochem. 396(1), 112-116 (2010)), where Fondaparinux corresponds to the methyl glycoside of the antithrombin III (ATIII)-activating pentasaccharide sequence of heparin. Fondaparinux is cleaved by heparanase to generate a reducing disaccharide, which can be quantitatively measured via a colorimetric or a fluorescence assay, the last by the fluorescent sensor polymer-H [Schiemann S, Lühn S, Alban S. Development of both colorimetric and fluorescence heparinase activity assays using fondaparinux as substrate. Anal. Biochem. 427(1), 82-89 (2012)].
The assay measures the appearance of the disaccharide product of heparanase-catalyzed fondaparinux cleavage colorimetrically using the tetrazolium salt WST-1. Assay was essentially performed as described with minor modifications. Briefly, NUNC ELISA 96-well plates were pre-treated with a solution of 4% BSA (bovin serum albumin) in phosphate-buffered saline containing 0.05% Tween 20 (PBST), for 2 h at 37°C, then washed three times with PBST, dried by tapping on paper towel and stored at -20°C. Before use, once again, the plates were washed with PBST.
Assay was carried out with 100 µl/well of assay solution containing 40 mM sodium acetate buffer (pH 5.0), 100 µM fondaparinux, 2.5 nM heparanase and serial dilutions of test compounds (tested in triplicate). Plates were sealed with adhesive tape and incubated, in the dark, for 3 h at 37°C, followed by development with 1.69 mM of the tetrazolium salt WST-1 solution in 0.1 M NaOH, for 1 h at 60°C. Then, the absorbance at 560 nm was measured through a microplate reader (Victor 3, Perkin Elmer).
Finally, the measurements were corrected by subtracting both the reagent background and the inner absorbance value of test compound.

| SMILES | IC50 |
| --- | --- |
| CC(C)CC(NC(=O)Cc1cccc(NC(=O)c2cc(NC(=O)c3cccc(NC(=O)Nc4cccc(C(=O)Nc5cc(C(=O)Nc6cccc(CC(=O)NC(CC(C)C)C(=O)O)c6)n(C)c5)c4)c3)cn2C)c1)C(=O)O (stereo not drawn) [Compound 12a, 2,2'-{carbonylbis[imino-3,1-phenylenecarbonylimino(1-methyl-1H-pyrrole-4,2-diyl)carbonylimino-3,1-phenylene(1-oxoethane-2,1-diyl)imino]}bis(4-methylpentanoic acid)] | 1 to 20 µM |
| Cn1cc(NC(=O)c2cccc(NC(=O)Nc3cccc(C(=O)Nc4cc(C(=O)Nc5cccc(CC(=O)N[C@@H](CCCCN)C(=O)O)c5)n(C)c4)c3)c2)cc1C(=O)Nc1cccc(CC(=O)N[C@@H](CCCCN)C(=O)O)c1 [Compound 12c, 5,5'-{carbonylbis[imino-3,1-phenylenecarbonylimino(1-methyl-1H-pyrrole-4,2-diyl)carbonylimino-3,1-phenylene(1-oxoethane-2,1-diyl)imino]}bis(1-aminium-6-hexanoic acid) trifluoroacetate salt] | 1 to 20 µM |
| CC(NC(=O)Cc1cccc(NC(=O)c2cc(NC(=O)c3cccc(NC(=O)Nc4cccc(C(=O)Nc5cc(C(=O)Nc6cccc(CC(=O)NC(C)C(=O)O)c6)n(C)c5)c4)c3)cn2C)c1)C(=O)O (stereo not drawn) [Compound 12d, 2,2'-{carbonylbis[imino-3,1-phenylenecarbonylimino(1-methyl-1H-pyrrole-4,2-diyl)carbonylimino-3,1-phenylene(1-oxoethane-2,1-diyl)imino]}dipropanoic acid] | 1 to 20 µM |
| Cn1cc(NC(=O)c2cccc(NC(=O)Nc3cccc(C(=O)Nc4cc(C(=O)Nc5cccc(CC(=O)N[C@@H](CCC(=O)O)C(=O)O)c5)n(C)c4)c3)c2)cc1C(=O)Nc1cccc(CC(=O)N[C@@H](CCC(=O)O)C(=O)O)c1 [Compound 12f, 2,2'-{carbonylbis[imino-3,1-phenylenecarbonylimino(1-methyl-1H-pyrrole-4,2-diyl)carbonylimino-3,1-phenylene(1-oxoethane-2,1-diyl)imino]}dipentandioic acid] | 1 to 20 µM |
| Cn1cc(NC(=O)c2cccc(NC(=O)Nc3cccc(C(=O)Nc4cc(C(=O)Nc5cccc(CC(=O)O)c5)n(C)c4)c3)c2)cc1C(=O)Nc1cccc(CC(=O)O)c1 [Compound 12h, 2,2'-(((4,4'-((3,3'-(Carbonylbis(azanediyl))bis(benzoyl))bis(azanediyl))bis(1-methyl-1H-pyrrole-4,2-diyl-2-carbonyl))bis(azanediyl))bis(3,1-phenylene))diacetic acid] | 1 to 20 µM |
| Cn1cc(NC(=O)c2cccc(NC(=O)Nc3cccc(C(=O)Nc4cc(C(=O)Nc5ccc(CC(=O)O)cc5)n(C)c4)c3)c2)cc1C(=O)Nc1ccc(CC(=O)O)cc1 [Compound 12j, 2,2'-(((4,4'-((3,3'-(carbonylbis(azanediyl))bis(benzoyl))bis(azanediyl))bis(1-methyl-1H-pyrrole-2,2'-carbonyl))bis(azanediyl))bis(4,1-phenylene))diacetic acid] | 1 to 20 µM |
| Cn1cc(NC(=O)c2cccc(NC(=O)Nc3cccc(C(=O)Nc4cc(C(=O)Nc5cccc(CC(=O)NCC(=O)NCC(=O)O)c5)n(C)c4)c3)c2)cc1C(=O)Nc1cccc(CC(=O)NCC(=O)NCC(=O)O)c1 [Compound 13b, Disodium 2,2'-{carbonylbis[imino-3,1-phenylenecarbonylimino(1-methyl-1H-pyrrole-4,2-diyl)carbonylimino-3,1-phenylene(1-oxoethane-2,1-diyl)imino(1-oxoethane-2,1-diyl)imino]}diethanoate salt] | 1 to 20 µM |
| CC(C)CC(NC(=O)Cc1cccc(NC(=O)c2cc(NC(=O)c3cc(NC(=O)Nc4cc(C(=O)Nc5cc(C(=O)Nc6cccc(CC(=O)NC(CC(C)C)C(=O)O)c6)n(C)c5)n(C)c4)cn3C)cn2C)c1)C(=O)O (stereo not drawn) [Compound 17a, 2,2'-{carbonylbis[imino(1-methyl-1H-pyrrole-4,2-diyl)carbonylimino(1-methyl-1H-pyrrole-4,2-diyl)carbonylimino-3,1-phenylene(1-oxoethane-2,1-diyl)imino]}bis(4-methylpentanoic acid)] | 1 to 20 µM |
| C[C@H](NC(=O)Cc1cccc(NC(=O)c2cc(NC(=O)c3cc(NC(=O)Nc4cc(C(=O)Nc5cc(C(=O)Nc6cccc(CC(=O)N[C@@H](C)C(=O)O)c6)n(C)c5)n(C)c4)cn3C)cn2C)c1)C(=O)O [Compound 17d, 2,2'-{carbonylbis[imino(1-methyl-1H-pyrrole-4,2-diyl)carbonylimino(1-methyl-1H-pyrrole-4,2-diyl)carbonylimino-3,1-phenylene(1-oxoethane-2,1-diyl)imino]}dipropanoic acid] | 1 to 20 µM |
| Cn1cc(NC(=O)Nc2cc(C(=O)Nc3cc(C(=O)Nc4cccc(CC(=O)N[C@@H](CCC(=O)O)C(=O)O)c4)n(C)c3)n(C)c2)cc1C(=O)Nc1cc(C(=O)Nc2cccc(CC(=O)N[C@@H](CCC(=O)O)C(=O)O)c2)n(C)c1 [Compound 17f, 2,2'-{carbonylbis[imino-3,1-phenylenecarbonylimino(1-methyl-1H-pyrrole-4,2-diyl)carbonylimino-3,1-phenylene(1-oxoethane-2,1-diyl)imino]}dipentandioic acid] | 1 to 20 µM |
| Cn1cc(NC(=O)Nc2cc(C(=O)Nc3cc(C(=O)Nc4cccc(CC(=O)N[C@@H](CCCCN)C(=O)O)c4)n(C)c3)n(C)c2)cc1C(=O)Nc1cc(C(=O)Nc2cccc(CC(=O)N[C@@H](CCCCN)C(=O)O)c2)n(C)c1 [Compound 35c, (2S,2'S)-2,2'-((2,2'-(((4,4'-((4,4'-(carbonylbis(azanediyl))bis(1-methyl-1H-pyrrole-4,2-diyl-2-carbonyl))bis(azanediyl))bis(1-methyl-1H-pyrrole-4,2-diyl-2-carbonyl))bis(azanediyl))bis(3,1-phenylene))bis(acetyl))bis(azanediyl))bis(6-aminohexanoic acid) dihydrochloride] | 1 to 20 µM |
| CC(C)C[C@H](NC(=O)Cc1cccc(NC(=O)c2cc(NC(=O)c3ccc(Oc4ccc(C(=O)Nc5cc(C(=O)Nc6cccc(CC(=O)N[C@@H](CC(C)C)C(=O)O)c6)n(C)c5)cc4)cc3)cn2C)c1)C(=O)O [Compound 36a, (2S,2'S)-2,2'-((2,2'-(((4,4'-((4,4'-Oxybis(benzoyl))bis(azanediyl))bis(1-methyl-1H-pyrrole-2,2'-carbonyl))bis(azanediyl))bis(3,1-phenylene))bis(acetyl))bis(azanediyl))bis(4-methylpentanoic acid)] | 1 to 20 µM |
| Cn1cc(NC(=O)c2ccc(Oc3ccc(C(=O)Nc4cc(C(=O)Nc5cccc(CC(=O)NCC(=O)O)c5)n(C)c4)cc3)cc2)cc1C(=O)Nc1cccc(CC(=O)NCC(=O)O)c1 [Compound 36b, 2,2'-((2,2'-(((4,4'-((4,4'-Oxybis(benzoyl))bis(azanediyl))bis(1-methyl-1H-pyrrole-2,2'-carbonyl))bis(azanediyl))bis(3,1-phenylene))bis(acetyl))bis(azanediyl))diacetic acid] | 1 to 20 µM |
| Cn1cc(NC(=O)c2ccc(Oc3ccc(C(=O)Nc4cc(C(=O)Nc5cccc(CC(=O)N[C@@H](CCCCN)C(=O)O)c5)n(C)c4)cc3)cc2)cc1C(=O)Nc1cccc(CC(=O)N[C@@H](CCCCN)C(=O)O)c1 [Compound 36c, (2S,2'S)-2,2'-((2,2'-(((4,4'-((4,4'-oxybis(benzoyl))bis(azanediyl))bis(1-methyl-1H-pyrrole-4,2-diyl-2-carbonyl))bis(azanediyl))bis(3,1-phenylene))bis(acetyl))bis(azanediyl))bis(6-aminohexanoic acid) dihydrochloride] | 1 to 20 µM |
| C[C@H](NC(=O)Cc1cccc(NC(=O)c2cc(NC(=O)c3ccc(Oc4ccc(C(=O)Nc5cc(C(=O)Nc6cccc(CC(=O)N[C@@H](C)C(=O)O)c6)n(C)c5)cc4)cc3)cn2C)c1)C(=O)O [Compound 36d, (2S,2'S)-2,2'-((2,2'-(((4,4'-((4,4'-Oxybis(benzoyl))bis(azanediyl))bis(1-methyl-1H-pyrrole-2,2'-carbonyl))bis(azanediyl))bis(3,1-phenylene))bis(acetyl))bis(azanediyl))dipropanoic acid] | 1 to 20 µM |
